Reference: ChEMBL document CHEMBL4507319 (2021)

Key:
[1] = biological target: T1, Serine/threonine-protein kinase TAO3 (Homo sapiens) (UniProt Q9H2K8); test: TAO3(h) Eurofins kinase panel; settings: Compound concentration 1.0 uM
T1 sequence (whole entry): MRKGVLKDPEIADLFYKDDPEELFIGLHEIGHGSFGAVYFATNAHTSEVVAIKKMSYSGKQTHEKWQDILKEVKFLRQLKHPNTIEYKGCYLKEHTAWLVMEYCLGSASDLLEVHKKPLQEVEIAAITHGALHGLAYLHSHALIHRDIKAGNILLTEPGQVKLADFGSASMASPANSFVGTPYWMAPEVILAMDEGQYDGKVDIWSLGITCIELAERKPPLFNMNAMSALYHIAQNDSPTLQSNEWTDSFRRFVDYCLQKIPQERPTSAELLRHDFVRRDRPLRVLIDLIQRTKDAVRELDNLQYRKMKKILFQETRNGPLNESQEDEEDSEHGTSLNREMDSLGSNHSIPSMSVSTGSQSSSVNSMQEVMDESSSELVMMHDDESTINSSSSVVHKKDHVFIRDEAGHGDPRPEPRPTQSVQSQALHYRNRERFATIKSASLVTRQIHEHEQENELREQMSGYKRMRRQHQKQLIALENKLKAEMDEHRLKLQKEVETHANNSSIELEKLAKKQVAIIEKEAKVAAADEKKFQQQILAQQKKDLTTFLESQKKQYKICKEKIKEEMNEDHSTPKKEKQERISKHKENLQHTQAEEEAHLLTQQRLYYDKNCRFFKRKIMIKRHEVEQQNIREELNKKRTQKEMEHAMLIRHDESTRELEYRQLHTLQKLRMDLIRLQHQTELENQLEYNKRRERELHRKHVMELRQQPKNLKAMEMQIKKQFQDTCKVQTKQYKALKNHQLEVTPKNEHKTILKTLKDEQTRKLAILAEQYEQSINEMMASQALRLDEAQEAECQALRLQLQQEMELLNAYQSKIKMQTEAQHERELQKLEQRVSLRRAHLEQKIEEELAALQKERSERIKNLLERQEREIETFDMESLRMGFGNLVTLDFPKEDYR

LNCaP C4-2B = test: C4-2B cell line Proliferation assay; assay type: functional, Homo sapiens; settings: time 6 day
[2] = biological target: T2, Serine/threonine-protein kinase BRSK2 (Homo sapiens) (UniProt Q8IWQ3); test: BrSK2(h) Eurofins kinase panel; settings: Compound concentration 1.0 uM
T2 sequence (whole entry): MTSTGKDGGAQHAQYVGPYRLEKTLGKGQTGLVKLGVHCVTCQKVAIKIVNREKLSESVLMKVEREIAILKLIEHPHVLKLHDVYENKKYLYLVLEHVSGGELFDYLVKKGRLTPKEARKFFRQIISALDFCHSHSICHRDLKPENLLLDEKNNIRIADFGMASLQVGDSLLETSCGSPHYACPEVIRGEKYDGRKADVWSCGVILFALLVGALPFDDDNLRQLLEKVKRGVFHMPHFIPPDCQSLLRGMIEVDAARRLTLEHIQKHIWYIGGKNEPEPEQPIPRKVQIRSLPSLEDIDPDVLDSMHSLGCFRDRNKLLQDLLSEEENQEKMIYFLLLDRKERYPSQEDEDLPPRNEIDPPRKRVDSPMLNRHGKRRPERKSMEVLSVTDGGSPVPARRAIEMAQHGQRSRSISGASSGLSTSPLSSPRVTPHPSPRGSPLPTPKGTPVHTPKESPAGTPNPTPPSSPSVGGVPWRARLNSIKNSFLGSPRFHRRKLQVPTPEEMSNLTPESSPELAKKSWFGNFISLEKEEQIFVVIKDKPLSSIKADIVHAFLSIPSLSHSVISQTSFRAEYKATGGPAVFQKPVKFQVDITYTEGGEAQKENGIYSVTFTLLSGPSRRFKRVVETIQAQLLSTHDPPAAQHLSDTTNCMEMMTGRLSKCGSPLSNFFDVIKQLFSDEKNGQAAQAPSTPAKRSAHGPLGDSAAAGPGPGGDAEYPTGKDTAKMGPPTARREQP

[3] = biological target: RAC-gamma serine/threonine-protein kinase (Homo sapiens) (UniProt Q9Y243); test: PKBgamma (h) Eurofins kinase panel; settings: Compound concentration 1.0 uM
Chain of RAC-gamma serine/threonine-protein kinase (Homo sapiens) (Q9Y243 whole entry): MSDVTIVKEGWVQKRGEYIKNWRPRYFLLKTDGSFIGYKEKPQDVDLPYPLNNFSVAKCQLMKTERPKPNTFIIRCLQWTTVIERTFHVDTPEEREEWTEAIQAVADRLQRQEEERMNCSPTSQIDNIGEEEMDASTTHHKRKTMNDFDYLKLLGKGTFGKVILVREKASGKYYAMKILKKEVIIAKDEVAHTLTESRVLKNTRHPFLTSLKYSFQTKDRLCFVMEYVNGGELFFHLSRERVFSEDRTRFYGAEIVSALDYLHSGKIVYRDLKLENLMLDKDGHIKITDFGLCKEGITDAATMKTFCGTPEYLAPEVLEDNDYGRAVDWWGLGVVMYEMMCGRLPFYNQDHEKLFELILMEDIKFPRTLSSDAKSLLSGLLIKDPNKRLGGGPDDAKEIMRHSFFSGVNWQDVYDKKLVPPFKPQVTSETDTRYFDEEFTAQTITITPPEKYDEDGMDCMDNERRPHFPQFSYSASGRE

[4] = biological target: Tyrosine-protein kinase Lck (Homo sapiens) (UniProt P06239); test: Lck(h) activated Eurofins kinase panel; settings: Compound concentration 1.0 uM
Chain of Tyrosine-protein kinase Lck (Homo sapiens) (P06239 2-509 limits assumed): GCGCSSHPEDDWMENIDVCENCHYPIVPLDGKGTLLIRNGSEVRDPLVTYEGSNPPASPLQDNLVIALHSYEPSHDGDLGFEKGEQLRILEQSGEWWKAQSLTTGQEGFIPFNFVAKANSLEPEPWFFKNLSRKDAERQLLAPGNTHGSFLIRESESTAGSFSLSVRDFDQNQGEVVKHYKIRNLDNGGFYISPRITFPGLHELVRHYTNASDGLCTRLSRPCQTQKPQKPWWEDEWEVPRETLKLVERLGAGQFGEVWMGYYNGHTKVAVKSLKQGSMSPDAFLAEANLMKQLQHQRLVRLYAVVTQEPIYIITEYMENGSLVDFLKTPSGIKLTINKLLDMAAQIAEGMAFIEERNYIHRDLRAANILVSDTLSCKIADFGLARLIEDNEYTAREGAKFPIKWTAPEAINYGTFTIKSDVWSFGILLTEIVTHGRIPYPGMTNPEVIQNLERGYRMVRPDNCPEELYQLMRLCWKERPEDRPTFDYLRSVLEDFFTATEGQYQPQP

[5] = biological target: Bone morphogenetic protein receptor type-1B (Homo sapiens) (UniProt O00238); test: ALK6(h) Eurofins kinase panel; settings: Compound concentration 1.0 uM
Chain of Bone morphogenetic protein receptor type-1B (Homo sapiens) (O00238 whole entry): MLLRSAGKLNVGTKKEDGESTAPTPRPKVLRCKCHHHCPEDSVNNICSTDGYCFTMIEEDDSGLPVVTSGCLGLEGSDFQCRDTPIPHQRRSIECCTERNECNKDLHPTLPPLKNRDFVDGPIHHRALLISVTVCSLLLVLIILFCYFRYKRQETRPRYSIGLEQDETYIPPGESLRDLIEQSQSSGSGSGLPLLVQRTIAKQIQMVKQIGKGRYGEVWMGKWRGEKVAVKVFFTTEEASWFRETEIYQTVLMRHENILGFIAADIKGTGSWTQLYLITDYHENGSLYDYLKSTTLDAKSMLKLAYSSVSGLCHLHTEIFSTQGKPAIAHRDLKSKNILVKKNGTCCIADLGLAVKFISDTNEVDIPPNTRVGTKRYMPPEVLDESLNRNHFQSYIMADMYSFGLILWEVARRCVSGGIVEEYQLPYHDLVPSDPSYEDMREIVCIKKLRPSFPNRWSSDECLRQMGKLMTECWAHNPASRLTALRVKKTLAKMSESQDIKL

COLO 201 = test: COLO 201, control cell line Proliferation assay; assay type: functional, Homo sapiens; settings: time 3 day
[6] = biological target: T3, Interleukin-1 receptor-associated kinase 4 (Homo sapiens) (UniProt Q9NWZ3); test: IRAK4(h) Eurofins kinase panel; settings: Compound concentration 1.0 uM
T3 sequence (whole entry): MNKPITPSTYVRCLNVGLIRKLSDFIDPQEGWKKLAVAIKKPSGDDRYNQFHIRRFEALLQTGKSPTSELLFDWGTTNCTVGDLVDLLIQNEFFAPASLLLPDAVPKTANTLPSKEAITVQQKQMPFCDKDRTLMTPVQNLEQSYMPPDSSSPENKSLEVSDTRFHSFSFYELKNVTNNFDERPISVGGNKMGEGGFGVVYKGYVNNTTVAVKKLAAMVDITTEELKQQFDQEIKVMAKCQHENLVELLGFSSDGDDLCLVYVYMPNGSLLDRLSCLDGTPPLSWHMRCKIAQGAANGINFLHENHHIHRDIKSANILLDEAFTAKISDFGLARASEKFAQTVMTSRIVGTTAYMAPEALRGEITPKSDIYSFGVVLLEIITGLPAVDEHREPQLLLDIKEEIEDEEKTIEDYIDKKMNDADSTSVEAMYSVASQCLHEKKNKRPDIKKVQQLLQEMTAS

[7] = biological target: Mitogen-activated protein kinase 10 (Homo sapiens) (UniProt P53779); test: JNK3(h) Eurofins kinase panel; settings: Compound concentration 1.0 uM
Chain of Mitogen-activated protein kinase 10 (Homo sapiens) (P53779 whole entry): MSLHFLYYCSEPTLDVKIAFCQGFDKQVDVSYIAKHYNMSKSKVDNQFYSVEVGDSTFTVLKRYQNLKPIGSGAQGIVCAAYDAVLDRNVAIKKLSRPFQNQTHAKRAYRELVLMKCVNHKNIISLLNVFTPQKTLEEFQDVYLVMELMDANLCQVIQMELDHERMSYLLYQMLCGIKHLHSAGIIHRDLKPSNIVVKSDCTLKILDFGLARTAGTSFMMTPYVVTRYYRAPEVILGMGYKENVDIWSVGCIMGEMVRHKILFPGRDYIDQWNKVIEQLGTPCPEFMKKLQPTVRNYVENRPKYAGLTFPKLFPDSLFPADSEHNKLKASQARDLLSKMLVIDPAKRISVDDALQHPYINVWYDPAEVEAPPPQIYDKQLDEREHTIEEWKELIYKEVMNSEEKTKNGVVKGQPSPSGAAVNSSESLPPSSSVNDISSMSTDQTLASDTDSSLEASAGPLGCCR

## CCc1ccccc1C(=O)Nc1n[nH]c2c(C)c(F)c(C3C(C#N)=C(C)N(C)C(C)=C3C#N)cc12 [BAY-3827]
[1]
  % residual kinase activity: 102%
LNCaP C4-2B
  Cell Proliferation IC50: >10 µM
[2]
  % residual kinase activity: 34%
[3]
  % residual kinase activity: 78%
[4]
  % residual kinase activity: 108%
[5]
  % residual kinase activity: 99%
COLO 201
  Cell Proliferation IC50: 16 µM
[6]
  % residual kinase activity: 103%
[7]
  % residual kinase activity: 72%
